# Values joined by “and” are separate entries in the source; they are usually repeats but may differ in a detail not shown here. Equal values may be shown once.
# Experiments:
# pyruvate oxidase = test: Pyruvate oxidase activity in rabbits fed supplemented vitamin E deficient diet; assay type: in vivo; conditions: after 30 days, vs basal vitamin E deficient diet
# Fibroblasts = test: Lipid peroxidation in fibroblast culture, TBA assay; assay type: cell-based; conditions: 0.01%, 3 days of incubation, 37° C.
# Method: The possibility that the present antioxidant may serve as a substitute for vitamin E was also tested in tissue culture. Fibroblasts were grown in an appropriate medium for three days at a temperature of 37° C., (a) in absence of additive (control), (b) in presence of 0.01% vitamin E, and (c) in presence of 0.01% present (crude) antioxidant.
# [1] = test system: liver microsomal NADPH oxidase; test: Liver microsomal NADPH oxidase activity in rabbits fed supplemented vitamin E deficient diet; assay type: in vivo; conditions: after 30 days, vs basal vitamin E deficient diet
# prostacyclin (PGI2) = test: Endogenous release of prostacyclin by isolated aorta segments of fed rabbits; assay type: in vivo; conditions: after 30 days, vs basal vitamin E deficient diet
# peroxides in the skin = test: Peroxide level in skin of adult mice (TBA test), topical application; assay type: in vivo; conditions: 0.1% in Oil of Olay
# From the text: Samples of lotions and appropriate controls were applied to mice or rat skin for a fixed period. The application was done once a day. Experiments were terminated by killing the animal, peeling the skin and freezing it in liquid nitrogen. Samples of the frozen skin were homogenized in 0.2M phosphate buffer, pH 6.5. After centrifugation, the supernatant was collected and analyzed for the peroxide value using the TBA (thiobarbituric acid) test as described by Sinnhuber et al, Food Res. 23:620 (1958).
# In these experiments adult mice (2 months old) were treated as described in Example 2. The grown mice were shaved before applying the lotions to the skin. In this experiment the antioxidant was dissolved in Oil of Olay. Mice were sacrificed after 21 days.
# [2] = test system: peroxide level in the skin; test: Malondialdehyde (MDA) level in epidermis of UV-irradiated hairless mice; assay type: in vivo, hairless mice (SKH/Hr); conditions: for % decrease in MDA, mean / MDA, Treated Irradiated Site, mean / % decrease in MDA / MDA, Treated Irradiated Site: 5% in ethanol
# From the text: In this experiment, alpha-tocopheryl acetate and the present antioxidant were applied to the skin of hairless mice and the level of peroxide in the skin after exposure to UV radiation compared to a control group. The detailed procedure was as follows.
# The malondialdehyde (MDA) assay is based on the methods of Dixit et al [J. Invest. Derm., 81: 369-75 (1983)], Tappel and Summerfield ["Measurement of and protection from in vivo lipid peroxidation", Free Radicals in Biology Vol. IV (1980). Academic Press, New York (W. A. Pryor, ed.)] and Placer et al [Analytical Biochemistry, 16:359-64 (1966)].
# 6-8week old hairless mice [(SKH/Hr); Skin and Cancer Hospital, Temple University, Philadelphia] were anesthetized using a 1:10 dilution of Sodium Pentobarbital (50 mg./ml., Elkins-Sinn. Inc.). The UV light sources were 2 fluorescent lamps (Westinghouse PS-40) and light intensity was measured with an Optometer (United Detector Technology) using a UVB filter. The tissue was homogenized using a Heat Systems model W-10 Sonicator, filtration and centrifugation of the homogenates being effected through a 2.5 micron Millipore filter and a Sorvall RC-5 Speed Centrifuge, respectively. The buffer consisted of 0.1M potassium phosphate, pH 7.4 with 10^-4 M magnesium chloride.
# The protein assay is based on the method given in Clinical Chemistry, 23: 908 (1977). The modified biuret reagent contains per liter 3.8 g. CuSO4, 6.7 g. EDTA, 17.5 g. glycine, 14.0 g. NaCI and 40.0 g. NaOH. Absorbance was measured on an MS-2 Spectrophotometer (Micromedic Systems, Inc.).
# 20 mice were anesthetized with Sodium Pentobarbital (0.5 mg./10 g. body weight). Two rectangular areas, 6.25 cm.^2 each, were outlined on the dorsal and ventral sides of each mouse. The dorsal areas were designated as left dorsal (site A) and right dorsal (site B). The ventral areas were designated as left ventral (site C) and right ventral (site D). The products were applied in an aliquot of 75 ul. to the designated sites. The application protocol was randomized so that a given treatment was not restricted to the same area of the skin. One site on each dorsal and ventral side remained untreated to serve as the irradiated controls. 15 minutes after product application, the mice were exposed to 110 millijoules of UV light per cm.^2 of skin area over a period of 220 seconds per side. The mice were placed so that the area to be irradiated was directly under the light source while the areas on the other side were protected from the radiation. The mice were irradiated on both the dorsal and ventral sides. After UV treatment, the mice were returned to separate cages to recover from the anesthesia.
# 4 hours after irradiation, the mice were sacrificed by cervical dislocation. The skin was removed and stretched over a styrofoam block. The epidermis was separated from the dermis by heating the skin in a water bath for 60 seconds at 54° C. and then scraping the surface with a scalpel. Each 6.25 cm. area of epidermis was placed in a separate 1.5 ml. Eppendorf vial with 200 ul. of buffer. The pieces of epidermis were homogenized by sonication for 2×30 seconds, with a 10 second pause between each 30 second period to prevent heat buildup. The vial was kept in an ice bath.
# After homogenization, 1 ml. of buffer was added to each vial and vortexed. The homogenate was filtered through a 2.5 micron filter, twice. An aliquot containing 1.4-1.8 mg. of homogenate protein was placed into test tubes with 0.6 ml. 10% trichloroacetic acid and 1.2 ml. 0.5% (w/v) 2-thiobarbituric acid. The test tube mixture was well vortexed and then placed in a boiling water bath for 10 minutes, the top of the test tube being covered with a marble which acted as a condensor. The tubes were cooled with running tap water and centrifuged for 15 minutes at 30,000×g. Blanks were prepared by placing 0.1M phosphate buffer in test tubes. All assays were done in duplicate. […]
# [3] = combined dorsal and ventral mean
# [4] = ventral, individual samples 6-10
molecule,measurement,setting,value
vitamin E,pyruvate oxidase activity (enzymatic lipid peroxidation),pyruvate oxidase,decreased
same,Peroxide value (TBA assay),Fibroblasts,0.015
same,liver microsomal NADPH oxidase activity (enzymatic lipid peroxidation),[1],decreased
same,"endogenous release of prostacyclin (PGI2), detected as 6-keto-PGF1-alpha",prostacyclin (PGI2),significantly increased
"Cc1cc(C(C)(C)C)c(O)c(C(C)(C)C)c1 [BHT, butylated hydroxy toluene]",effect on the level of peroxides in the skin,peroxides in the skin,no reduction of the level of peroxides was observed
"CC(=O)Oc1c(C)c(C)c2c(c1C)CCC(C)(CCC[C@H](C)CCC[C@H](C)CCCC(C)C)O2 (stereo partly drawn) [alp. tocopheryl acetate, alpha-tocopheryl acetate]",effectiveness in reducing the level of peroxides in the skin,[2]; 1% antioxidant in Oil of Olay vs 5% alpha-tocopheryl acetate in ethanol,significantly less effective
same,"% decrease in MDA, mean",[2]; [3],27.82%
same,"MDA, Treated Irradiated Site, mean",[2]; [3],0.168 nM MDA/mg. protein
same,"% decrease in MDA, mean",[2]; dorsal mean,27.26%
same,"MDA, Treated Irradiated Site, mean",[2]; dorsal mean,0.165 nM MDA/mg. protein
same,% decrease in MDA,"[2]; dorsal, individual samples 1-5",34.78% and 39.77% and 22.92% and 12.75% and 26.10%
same,"MDA, Treated Irradiated Site","[2]; dorsal, individual samples 1-5",0.105 nM MDA/mg. protein and 0.103 nM MDA/mg. protein and 0.074 nM MDA/mg. protein and 0.308 nM MDA/mg. protein and 0.235 nM MDA/mg. protein
same,"% decrease in MDA, mean",[2]; ventral mean,28.38%
same,"MDA, Treated Irradiated Site, mean",[2]; ventral mean,0.172 nM MDA/mg. protein
same,% decrease in MDA,[2]; [4],42.41% and 28.95% and 23.17% and 22.39% and 25.00%
same,"MDA, Treated Irradiated Site",[2]; [4],0.148 nM MDA/mg. protein and 0.189 nM MDA/mg. protein and 0.305 nM MDA/mg. protein and 0.027 nM MDA/mg. protein
Cc1c(C)c2c(c(C)c1O)CCC(C)(CCCC(C)CCCC(C)CCCC(C)C)O2 (stereo not drawn) [alpha tocopherol],effect on the level of peroxides in the skin,peroxides in the skin,no reduction of the level of peroxides was observed
"COc1ccc(O)c(C(C)(C)C)c1 [BHA, butylated hydroxy anisole]",effect on the level of peroxides in the skin,peroxides in the skin,no reduction of the level of peroxides was observed
